Patent publication US10952992B2, “Methods of treating intraocular pressure with activators of Tie-2” (Aerpio Pharmaceuticals, Inc., priority 2015, dated 2021)
Several values for one entry are separate records, joined by “and”; a condition that tells them apart may be missing. Equal values may be shown once. Where a name gives a salt, the structure may show the parent alone.

Test: Example 2 iris, retina, choroid and cornea tissue concentrations
Format: in vivo, male New Zealand White rabbits
Conditions: for Choroid Conc. OS / Choroid Conc. OD: choroid homogenate; for Choroid Conc. OS / Choroid tissue Conc. OS / Cornea Conc. OS / Cornea tissue Conc. OS / Iris Conc. OS / Iris tissue Conc. OS / Retina Conc. OS / Retina tissue Conc. OS: left eye; for Choroid Conc. OS / Choroid Conc. OD / Choroid tissue Conc. OS / Choroid tissue Conc. OD / Cornea Conc. OS / Cornea Conc. OD / Cornea tissue Conc. OS / Cornea tissue Conc. OD / Iris Conc. OS / Iris Conc. OD / Iris tissue Conc. OS / Iris tissue Conc. OD / Retina Conc. OS / Retina Conc. OD / Retina tissue Conc. OS / Retina tissue Conc. OD: individual animals; for Choroid Conc. OS / Choroid Conc. OD / Choroid tissue Conc. Avg. / Choroid tissue Conc. OS / Choroid tissue Conc. OD / Cornea Conc. OS / Cornea Conc. OD / Cornea tissue Conc. Avg. / Cornea tissue Conc. OS / Cornea tissue Conc. OD / Iris Conc. OS / Iris Conc. OD / Iris tissue Conc. Avg. / Iris tissue Conc. OS / Iris tissue Conc. OD / Retina Conc. OS / Retina Conc. OD / Retina tissue Conc. Avg. / Retina tissue Conc. OS / Retina tissue Conc. OD: intravitreal 2.5 mg/eye (~1.55 mg/kg), Group 4; for Choroid Conc. OD / Choroid tissue Conc. OD / Cornea Conc. OD / Cornea tissue Conc. OD / Iris Conc. OD / Iris tissue Conc. OD / Retina Conc. OD / Retina tissue Conc. OD: right eye; for Choroid tissue Conc. Avg. / Cornea tissue Conc. Avg. / Iris tissue Conc. Avg. / Retina tissue Conc. Avg.: average; for Cornea Conc. OS / Cornea Conc. OD: cornea homogenate; for Iris Conc. OS / Iris Conc. OD: iris homogenate; for Retina Conc. OS / Retina Conc. OD: retina homogenate
Description: To measure the concentration of Compound 1 in plasma and ocular tissues following topical ocular, subcutaneous, and intravitreal administration, New Zealand White rabbits were administered Compound 1, and plasma and ocular samples were collected at pre-determined time points. Compound 1 formulations were prepared fresh on each day of dosing.
Ocular tissue samples from both eyes of each animal were collected and weights were recorded. Plasma and ocular tissue sample concentrations of Compound 1 were determined by LC-MS/MS.
Animals were anesthetized for ocular (topical) and intravitreal dosing following the 12IA7 IACUC protocol. Each rabbit received a bolus dose of test formulation either via topical ocular administration 3 times daily on Days 1 and 2 (at 0, 6, and 12 hours), and once on Day 3 (at 0 hours) into both eyes; via intravitreal administration into both eyes once on Day 1 (at 0 hours); or via subcutaneous administration 2 times daily on Days 1 and 2 (at 0 and 8 hours) and once daily on Day 3 (at 0 hours). Doses were given within an approximately 1 hour window each day where applicable.
On Day 1, for intravitreal administration, or on Day 3, for topical ocular and subcutaneous administration, at the appropriate ocular tissue collection time points, animals were euthanized and both eyes were enucleated immediately. Following enucleation, each eye was rinsed with phosphate-buffered saline. Ocular tissue samples from both eyes of each animal were collected at predetermined time points and weights were recorded. All the samples were frozen immediately on dry ice, and stored at −60° C. to −80° C. pending bioanalysis.
An LC-MS/MS method was developed for the determination of Compound 1 in rabbit aqueous tissues (plasma, aqueous and vitreous humor) and solid ocular tissue samples. A pre-study standard curve was analyzed to determine the specificity, range, and lower limit of quantitation of the method. Plasma and tissue homogenate study samples were extracted and analyzed. All the samples were treated identically to the standards.
One eight-point standard curve was used in each analytical batch. To be accepted, each batch must have had at least five of eight standards with accuracy within ±20% of nominal, except at the lower limit of quantification (LLOQ), where ±25% was acceptable.

[1] = Iris, 4 hr, subcutaneous 5 mg/kg/dose (Group 2), sodium salt
[2] = Iris, 4 hr, topical ocular 1.2 mg/eye (Group 1), sodium salt
[3] = Retina, 0.5 hr, subcutaneous 5 mg/kg/dose (Group 2), sodium salt
[4] = Retina, 0.5 hr, topical ocular 1.2 mg/eye (Group 1), sodium salt
[5] = Retina, 1 hr, subcutaneous 5 mg/kg/dose (Group 2), sodium salt
[6] = Retina, 1 hr, topical ocular 1.2 mg/eye (Group 1), sodium salt
[7] = Retina, 2 hr, subcutaneous 5 mg/kg/dose (Group 2), sodium salt
[8] = Retina, 4 hr, subcutaneous 5 mg/kg/dose (Group 2), sodium salt
[9] = Retina, 4 hr, topical ocular 1.2 mg/eye (Group 1), sodium salt

- Average (Iris, 2 hr, subcutaneous 5 mg/kg/dose (Group 2), sodium salt): 29.7 ng/g
- Average (Iris, 2 hr, topical ocular 1.2 mg/eye (Group 1), sodium salt): 51.9 ng/g
- Average [1]: 30.4 ng/g
- Conc. (ng/g) OD [1]: 33.8 ng/g
- Conc. (ng/g) OS [1]: 34.1 ng/g
- Conc. (ng/mL) OD [1]: 2.12 ng/mL and 3.07 ng/mL
- Average [2]: 261 ng/g
- Conc. (ng/g) OD [2]: 32.7 ng/g and 27.9 ng/g
- Conc. (ng/g) OS [2]: 30.7 ng/g
- Conc. (ng/mL) OD [2]: 2.97 ng/mL and 2.54 ng/mL
- Average [3]: 40.5 ng/g
- Conc. (ng/g) OD [3]: 30.5 ng/g and 34.9 ng/g
- Conc. (ng/g) OS [3]: 48.0 ng/g and 48.7 ng/g
- Conc. (ng/mL) OD [3]: 2.77 ng/mL and 3.17 ng/mL
- Conc. (ng/mL) OS [3]: 4.36 ng/mL and 4.43 ng/mL
- Average [4]: 25.6 ng/g
- Conc. (ng/g) OS [4]: 33.7 ng/g and 33.1 ng/g
- Conc. (ng/mL) OS [4]: 3.06 ng/mL and 3.01 ng/mL
- Average [5]: 32.6 ng/g
- Conc. (ng/g) OD [5]: 22.4 ng/g and 18.3 ng/g
- Conc. (ng/g) OS [5]: 43.2 ng/g and 46.4 ng/g
- Conc. (ng/mL) OD [5]: 2.04 ng/mL and 1.66 ng/mL
- Conc. (ng/mL) OS [5]: 3.93 ng/mL and 4.22 ng/mL
- Average [6]: 59.2 ng/g
- Conc. (ng/g) OD [6]: 76.9 ng/g and 85.9 ng/g
- Conc. (ng/mL) OD [6]: 6.99 ng/mL and 7.81 ng/mL
- Average [7]: 16.4 ng/g
- Conc. (ng/g) OD [7]: 15.0 ng/g
- Conc. (ng/g) OS [7]: 17.8 ng/g
- Average (Retina, 2 hr, topical ocular 1.2 mg/eye (Group 1), sodium salt): 48.3 ng/g
- Average [8]: 19.7 ng/g
- Conc. (ng/g) OD [8]: 19.7 ng/g
- Conc. (ng/mL) OS [8]: BLOQ
- Average [9]: 405 ng/g
- Conc. (ng/g) OS [9]: 64.8 ng/g
- Choroid Conc. OS (6.0 hr): 105000 ng/mL and 44000 ng/mL
- Choroid Conc. OD (6.0 hr): 164000 ng/mL and 31500 ng/mL
- Choroid Conc. OS (24 hr): 9890 ng/mL and 10400 ng/mL
- Choroid Conc. OD (24 hr): 11800 ng/mL and 18400 ng/mL
- Choroid Conc. OS (48 hr): 3740 ng/mL and 2790 ng/mL
- Choroid Conc. OD (48 hr): 3480 ng/mL and 4040 ng/mL
- Choroid Conc. OS (72 hr): 282 ng/mL and 290 ng/mL
- Choroid Conc. OD (72 hr): 107 ng/mL and 311 ng/mL
- Choroid tissue Conc. Avg. (6.0 hr): 947375 ng/g
- Choroid tissue Conc. OS (6.0 hr): 1155000 ng/g and 484000 ng/g
- Choroid tissue Conc. OD (6.0 hr): 1804000 ng/g and 346500 ng/g
- Choroid tissue Conc. Avg. (24 hr): 138848 ng/g
- Choroid tissue Conc. OS (24 hr): 108790 ng/g and 114400 ng/g
- Choroid tissue Conc. OD (24 hr): 129800 ng/g and 202400 ng/g
- Choroid tissue Conc. Avg. (48 hr): 38638 ng/g
- Choroid tissue Conc. OS (48 hr): 41140 ng/g and 30690 ng/g
- Choroid tissue Conc. OD (48 hr): 38280 ng/g and 44440 ng/g
- Choroid tissue Conc. Avg. (72 hr): 2723 ng/g
- Choroid tissue Conc. OS (72 hr): 3102 ng/g and 3190 ng/g
- Choroid tissue Conc. OD (72 hr): 1177 ng/g and 3421 ng/g
- Cornea Conc. OS (6.0 hr): 6940 ng/mL and 6030 ng/mL
- Cornea Conc. OD (6.0 hr): 6300 ng/mL and 6710 ng/mL
- Cornea Conc. OS (24 hr): 1560 ng/mL and 1930 ng/mL
- Cornea Conc. OD (24 hr): 2180 ng/mL and 2940 ng/mL
- Cornea Conc. OS (48 hr): 662 ng/mL and 487 ng/mL
- Cornea Conc. OD (48 hr): 1050 ng/mL and 538 ng/mL
- Cornea Conc. OS (72 hr): 20.1 ng/mL and 58.1 ng/mL
- Cornea Conc. OD (72 hr): 18.0 ng/mL and 56.9 ng/mL
- Cornea tissue Conc. Avg. (6.0 hr): 71445 ng/g
- Cornea tissue Conc. OS (6.0 hr): 76340 ng/g and 66330 ng/g
- Cornea tissue Conc. OD (6.0 hr): 69300 ng/g and 73810 ng/g
- Cornea tissue Conc. Avg. (24 hr): 23678 ng/g
- Cornea tissue Conc. OS (24 hr): 17160 ng/g and 21230 ng/g
- Cornea tissue Conc. OD (24 hr): 23980 ng/g and 32340 ng/g
- Cornea tissue Conc. Avg. (48 hr): 7527 ng/g
- Cornea tissue Conc. OS (48 hr): 7282 ng/g and 5357 ng/g
- Cornea tissue Conc. OD (48 hr): 11550 ng/g and 5918 ng/g
- Cornea tissue Conc. Avg. (72 hr): 421 ng/g
- Cornea tissue Conc. OS (72 hr): 221 ng/g and 639 ng/g
- Cornea tissue Conc. OD (72 hr): 198 ng/g and 626 ng/g
- Iris Conc. OS (6.0 hr): 34000 ng/mL and 30600 ng/mL
- Iris Conc. OD (6.0 hr): 35500 ng/mL and 27800 ng/mL
- Iris Conc. OS (24 hr): 7610 ng/mL and 25900 ng/mL
- Iris Conc. OD (24 hr): 6890 ng/mL and 11000 ng/mL
- Iris Conc. OS (48 hr): 1960 ng/mL and 2780 ng/mL
- Iris Conc. OD (48 hr): 2380 ng/mL and 1820 ng/mL
- Iris Conc. OS (72 hr): 225 ng/mL and 59.5 ng/mL
- Iris Conc. OD (72 hr): 169 ng/mL and 110 ng/mL
- Iris tissue Conc. Avg. (6.0 hr): 351725 ng/g
- Iris tissue Conc. OS (6.0 hr): 374000 ng/g and 336600 ng/g
- Iris tissue Conc. OD (6.0 hr): 390500 ng/g and 305800 ng/g
- Iris tissue Conc. Avg. (24 hr): 141350 ng/g
- Iris tissue Conc. OS (24 hr): 83710 ng/g and 284900 ng/g
- Iris tissue Conc. OD (24 hr): 75790 ng/g and 121000 ng/g
- Iris tissue Conc. Avg. (48 hr): 24585 ng/g
- Iris tissue Conc. OS (48 hr): 21560 ng/g and 30580 ng/g
- Iris tissue Conc. OD (48 hr): 26180 ng/g and 20020 ng/g
- Iris tissue Conc. Avg. (72 hr): 1550 ng/g
- Iris tissue Conc. OS (72 hr): 2475 ng/g and 655 ng/g
- Iris tissue Conc. OD (72 hr): 1859 ng/g and 1210 ng/g
- Retina Conc. OS (6.0 hr): 41100 ng/mL and 82300 ng/mL
- Retina Conc. OD (6.0 hr): 39200 ng/mL and 119000 ng/mL
- Retina Conc. OS (24 hr): 28000 ng/mL and 3700 ng/mL
- Retina Conc. OD (24 hr): 29200 ng/mL and 35200 ng/mL
- Retina Conc. OS (48 hr): 6030 ng/mL and 6530 ng/mL
- Retina Conc. OD (48 hr): 6490 ng/mL and 7360 ng/mL
- Retina Conc. OS (72 hr): 370 ng/mL and 484 ng/mL
- Retina Conc. OD (72 hr): 750 ng/mL and 598 ng/mL
- Retina tissue Conc. Avg. (6.0 hr): 774400 ng/g
- Retina tissue Conc. OS (6.0 hr): 452100 ng/g and 905300 ng/g
- Retina tissue Conc. OD (6.0 hr): 431200 ng/g and 1309000 ng/g
- Retina tissue Conc. Avg. (24 hr): 355850 ng/g
- Retina tissue Conc. OS (24 hr): 308000 ng/g and 407000 ng/g
- Retina tissue Conc. OD (24 hr): 321200 ng/g and 387200 ng/g
- Retina tissue Conc. Avg. (48 hr): 72628 ng/g
- Retina tissue Conc. OS (48 hr): 66330 ng/g and 71830 ng/g
- Retina tissue Conc. OD (48 hr): 71390 ng/g and 80960 ng/g
- Retina tissue Conc. Avg. (72 hr): 6056 ng/g
- Retina tissue Conc. OS (72 hr): 4070 ng/g and 5324 ng/g
- Retina tissue Conc. OD (72 hr): 8250 ng/g and 6578 ng/g
- distribution among iris, retina, choroid, cornea (FIG. 13) (subcutaneous 5 mg/kg/dose, sodium salt): generally higher in the iris and choroid
- ocular tissue concentrations, sodium salt solution compared to free acid suspension (subcutaneous and intravitreal administration): generally higher
- distribution among iris, retina, choroid, cornea (FIG. 12) (topical ocular administration at 0.7 mg/kg/dose): generally higher in the cornea
Compound: COC(=O)N[C@@H](Cc1ccccc1)C(=O)N[C@@H](Cc1ccc(NS(=O)(=O)O)cc1)c1csc(-c2cccs2)n1 [Compound 1 sodium salt]
- distribution among iris, retina, choroid, cornea (FIG. 15) (intravitreal 1.55 mg/kg, sodium salt): generally higher in the retina and choroid
